According to US12245999B2, “Valproic acid for the treatment or prevention of pathological conditions associated with excess fibrin deposition and/or thrombus formation” (Cereno Scientific AB, priority 2014, dated 2025):
Like-named read-outs stand apart in the source and are kept apart here.

Experiments:
[1] = system: PAI-1; assay: Proof-of-concept cross-over study in healthy subjects: plasma PAI-1 before and after valproic acid; type: in vivo, human; settings: 500 mg (Ergenyl Retard) twice daily during 14 days, p<0.05
Experimental: (§1) The effects of VPA on PAI-1 were analysed in two different proof-of-concept studies in healthy subjects as well as in patients with manifest atherosclerotic disease. […] PAI-1 plasma levels were measured in the morning at the first day of the study as well as at the end of the treatment period with VPA (see example 2 for details on the PAI-1 analysis).
In the first study, 10 healthy non-smoking white male subjects (with mean BMI of approximately 26), aged 50-70 years were included and treated with valproic acid 500 mg (Ergenyl Retard, Sanofi) twice daily during 14 days.
(§2) The study comprises 20 patients with TIA/minor stroke. Patients are investigated before and after oral treatment with 400 mg valproic acid once time daily at 11 pm for 2 weeks. Plasma PAI-1 levels and plasma concentrations of valproic acid is followed daily during the study period at the following time-points: 3 am, 6 am, 10 am, 16 pm, 22 pm PAI-1 levels are measured by commercially available ELISA-kits (Coaliza PAI-1, Chromogenix AB) and the plasma concentration of valproic acid an metabolites thereof is analyzed according to clinical routine at the Sahlgrenska University laboratory, Gothenburg, Sweden.

[2] = system: PAI-1; assay: Proof-of-concept cross-over study in patients with a history of myocardial infarction: plasma PAI-1 before and after valproic acid; type: in vivo, human; settings: midmorning, p=0.01; for reduction in circulating plasma PAI-1 levels: 16 male patients with history of myocardial infarction, 500 mg (Ergenyl Retard) twice daily during 28 days on top of ordinary prescription
Experimental: as §1
In the second study, 16 non-smoking white male patients, aged 50-80 years with a history of a myocardial infarction were included. On top of their ordinary prescription (beta-blocker, ACE-inhibitor, statin, aspirin) they were treated with valproic acid 500 mg (Ergenyl Retard, Sanofi), twice daily during 28 days.
as §2

[3] = system: PAI-1; assay: In vitro cultured endothelial cells: PAI-1 mRNA / production after VPA treatment; type: cell-based
[4] = system: PAI-1; assay: In vivo model in mouse: plasma PAI-1; settings: in vivo model in mouse (unpublished data)
[5] = system: PAI-1; assay: Intermediate endpoint study in patients with TIA/minor stroke: plasma PAI-1 (ELISA); type: in vivo, human; settings: 20 patients with TIA/minor stroke, 400 mg enteric-coated tablet once daily at 11 pm for 2 weeks
Experimental: An intermediate endpoint proof-of-concept study is performed in patients with TIA/minor stroke investigated before and after treatment with Valproic acid. Valproic acid is administrated as an enteric-coated tablet with delayed absorption.
as §2

[6] = Clinical outcome study in high-risk patients: recurrent atherothrombotic events; type: in vivo, human; settings: 400 mg once daily at 11 pm, long-term, expected
Experimental: A clinical outcome study is performed in high-risk patients who have experienced a recent major atherothrombotic cardiovascular event (myocardial infarction or TIA/ischemic stroke) to investigate the preventive effect of valproic acid treatment on the risk for recurrent events. The annual risk for a recurrent atherothrombotic event in the investigated population is estimated to approximately 7%. Patients are randomized in a parallel study design to receive double-blind oral treatment with 400 mg valproic acid (as in Example 2) or placebo once time daily at 11 pm, in addition to optimal conventional treatment. The event rate is monitored by Kaplan-Meyer statistics. The primary efficacy endpoint is the composite measure of either mortality, or non-fatal myocardial infarction or ischemic stroke. The study is event-driven to a total of 180 events.

[7] = system: PAI-1; settings: in vivo model in pig (Svennerholm et al., PLoS One 2014); cited from earlier work

## CCCC(CCC)C(=O)O [valproic acid, 2-propylpentanoic acid]
[1]; 10 healthy male subjects, mid-morning vs before treatment
  reduction in circulating plasma PAI-1 levels: more than 50%
[1]; healthy male subjects, mid-morning, 22.2 ng/ml before treatment
  circulating plasma PAI-1 level after treatment: 10.8 ng/mL
[2]
  reduction in circulating plasma PAI-1 levels: 45%
[2]; listed as VPA
  reduction in circulating plasma PAI-1 levels: about 45%
[2]; patients with history of myocardial infarction, 500 mg (Ergenyl Retard) twice daily during 28 days, 19.6 ng/ml before treatment
  circulating plasma PAI-1 level after treatment: 11 ng/mL
[3]
  PAI-1 mRNA levels after VPA treatment: did not show a decrease
[3]; slight but significant
  increase in PAI-1 production: 30%
[4]
  effects on plasma PAI-1: did not detect any effects
[5]
  plasma PAI-1 levels lowered after the treatment: approximately 30%
[6]; in addition to conventional therapy
  reduction of risk for recurrent atherothrombotic event: approximately 30%
[6]; estimated approximately 7% without treatment
  annual absolute event rate: approximately 5%
[7]
  effects on plasma PAI-1: did not detect any effects
